Experimental findings from patent US4910318A, “Tetrahydrothiopyrano(3,2-b)-indole derivatives” (Shionogi & Co., Ltd., priority 1980, dated 1990) are described below.

In one data set the test system is Carrageenin edema. Put plainly: Anti-inflammatory activity (Carrageenin edema method). To be noted: Rattus norvegicus; rats, oral, 30 min before carrageenin; swelling measured 3 hours later; read-out: Anti-inflammatory activity ED30 (Test (1)). The format is in vivo, JCl-Wistar female rats. The method, then:
(1) Anti-inflammatory activity (Carrageenin edema method)
A 0.9% saline solution (0.05 ml) containing 1.0% carrageenin is used as phlogistic agent. After 30 minutes JCl-Wistar female rats (180-200 g, body weight) are orally administered a test compound, the phlogistic agent is injected subcutaneously into the plantar of the feet of the rats. The volume of swelling is measured 3 hours later and the anti-edema activity is determined by calculating a ratio (%) of the edematous volume of medicated foot to that of non-medicated foot.

For another data set, the system named is Acetic acid writhing. The data set can be described thus: Analgesic activity (Acetic acid writhing method). To be noted: Mus musculus; mice, oral, 30 min before acetic acid i.p.; writhing counted for 10 minutes; read-out: Analgesic activity ED50 (Test (2)). The class given is in vivo, DS male mice. The method, then: (2) Analgesic activity (Acetic acid writhing method)
DS male mice (20-23 g, body weight) are treated with an intraperitoneal injection of 0.1 ml/10 g of 0.6% acetic acid 30 minutes after oral administration of a test compound. The number of writhing times for 10 minutes is counted and ED50 is calculated.

The nature of a further data set: Acute toxicity. To be noted: mouse, in vivo; mice, oral, mortality at the 72nd hour; read-out: Acute toxicity LD50 (Test (3)). The method, then: DS mice (20-23 g, male) are orally administered a suspension of test compound with gum arabic. The mortality at the 72nd hour is determined and the LD50 is calculated.
A further data set deals with tetrabenazine ptosis. The data set can be described thus: Antidepressant activity: Anti-tetrabenazine ptosis test. The format is in vivo, mice. To be noted: for ED50: Mus musculus, mice, oral, 1 hour before TBZ 50 mg/kg s.c., ptosis 1 hour after TBZ. The method, then:
(§1) (4) Antidepressant activity
(4)-a Anti-tetrabenazine ptosis test
Tetrabenazine (TBZ, 50 mg/kg s.c.) was administered to 5 mice for each group 1 hour after oral treatment with test compounds. […] (4=complete, 3=3/4, 2=1/2, 1=[…] closure of the eyelid, 0=normal).

In data set [1] the test system is minimal electroshock seizures with reserpine. Put plainly: Antidepressant activity: Anti-electroshock test with reserpine. The class given is in vivo, mice. To be noted: for ED50: Mus musculus, po, mice, p.o., 0.5 hour before reserpine 2.5 mg/kg s.c., 12 mA, 0.2 sec, 4 hours after reserpine. The protocol:
as §1
(4)-b Anti-electroshock test with reserpine
Seizures were induced by shocking mice (10 per dose) via a pair of corneal electrodes with current intensity of 12 mA and a duration of 0.2 sec 4 hours after administration of reserpine.

The next data set concerns oxotremorine hypothermia. The data set can be described thus: Anti-cholinergic activity (Anti-oxotremorine hypothermia test). The class given is in vivo, mice. To be noted: for ED50: Mus musculus, mice, oral, 30 minutes before oxotremorine 0.5 mg/kg s.c. The protocol:
(5) Anti-cholinergic activity (Anti-oxotremorine hypothermia test)
Before each experiment the rectal temperature of the mice was recorded with a probe thermometer at a constant depth. The mice were divided into groups of 8 in such a way that the mean rectal temperature was the same in each group. Test compounds were administered orally 30 minutes before s.c. administration of oxotremorine (0.5 mg/kg).

Data set [2] concerns spontaneous locomotion in mice. The data set can be described thus: Spontaneous locomotor increasing activity. The format is in vivo. As to conditions: for ED50: Mus musculus, 50% increase vs control, 95% confidence limits on next line, read-out: ED50 (increasing effect on spontaneous locomotion); for ED50 / % of increase of spontaneous locomotion: oral. The protocol:
(6) Spontaneous locomotor increasing activity
For each group 3 mice were used. Spontaneous locomotor activity was recorded for 15 minutes by a Varimex activity meter from 15 minutes after oral administration of a test compound.

Data set [3] has as its system bizarre behaviours of mice. The data set can be described thus: Hallucinogenic activity (bizarre behaviours). The format is in vivo. To be noted: FIGS. 1 and 2. The method, then: (8) Hallucinogenic activity
Each of the five mice in each group was confined n a box for 15 minutes to let it adapt to its surroundings. The mouse was kept on a black disc of 74 cm in diameter for 2 minutes from 5 and 15 minutes after administration of a test compound. The number of bizarre behaviours (walking backwards, pivoting and the like) was counted.

Data set [4] has as its system spontaneous locomotion in mice. Put plainly: Spontaneous locomotor decreasing activity. The class given is in vivo. As to conditions: for ED50: Mus musculus, 50% decrease vs control, 95% confidence limits on a following line, read-out: ED50 (decreasing effect on spontaneous locomotion); for ED50 / % of decrease of spontaneous locomotion: mice, oral. An excerpt: (7) Spontaneous locomotor decreasing activity
For each group 5 mice were used.

The mark [5] stands for this setting: compared with imipramine, Table 2.

Structures are written as SMILES. Where a name gives a salt, the structure may show the parent alone.

Take `Cc1c(N(C)C)c(=O)n(-c2ccccc2)n1C` [Aminopyrine, reference compound]: the ED30 in the data set with Carrageenin edema was 24 mg/kg. Further, in the data set with Acetic acid writhing, the ED50 stood at 58 mg/kg. For the same compound, in “Acute toxicity”, the LD50 at 72 h stood at 800 mg/kg.

Turning to `CNCC1CCSc2c1n(C)c1ccccc21` (centres unmarked) [Compound 1, 4-Methylaminomethyl-5-methyl-2,3,4,5-tetrahydrothiopyrano[3,2-b]indole], the ED30 in the data set with Carrageenin edema was 9.4 mg/kg. The ED50 in the data set with Acetic acid writhing is 6.4 mg/kg; in the data set with tetrabenazine ptosis, 24.4 mg/kg; in data set [1], 4.3 mg/kg; in the data set on oxotremorine hypothermia it was above 50 mg/kg; in [2] (mice) it was 5.6 mg/kg. The LD50 at 72 h in “Acute toxicity” turned out to be 400 mg/kg. Besides, the “anti-depressant activity (in words)” value (in the data set on tetrabenazine ptosis (setting [5]); in [1] (setting [5])) was “strong anti-depressant activity” throughout. In addition, in the data set on oxotremorine hypothermia (Table 2), the “anti-cholinergic activity (in words)” value was “no anti-cholinergic acitivity”. Moreover, in [2] (continuous/successive administration), the “duration of spontaneous locomotion increasing activity” value is “more than 24 hours”. Also, in [2] (mice, Table 3), the “effect on spontaneous locomotion (in words)” value was “moderately increases spontaneous locomotion”. Moreover, the “strength of locomotion increasing activity compared with methamphetamine (in words)” value in data set [2] (mice, Table 3) is on record as “does not have so strong increasing activity as methamphethamine”. Also, the “% of increase of spontaneous locomotion” value worked out at 54.3% in data set [2] (mice, 5 mg/kg); 91.4% in data set [2] (mice, 10 mg/kg); 123.0% in data set [2] (mice, 20 mg/kg). In addition, in data set [3], the hallucinogenic activity entry is reported as “no hallucinogenic activity”.

`CCn1c2c(c3ccccc31)SCCC2CNC` (centres unmarked) [Compound 2, 4-methylaminomethyl-5-ethyl-2,3,4,5-tetrahydrothiopyrano[3,2-b]indole]: the ED30 with Carrageenin edema amounted to 9.4 mg/kg. The ED50 in the data set with Acetic acid writhing is 13.3 mg/kg. Further, the 50% lethal dose (LD50) at 72 h in the data set “Acute toxicity” turned out to be 800 mg/kg.

For the compound `CN(C)CC1CCSc2c1n(C)c1ccccc21` (centres unmarked) [Compound 3, 4-Dimethylaminomethyl-5-methyl-2,3,4,5-tetrahydrothiopyrano[3,2-b]indole], the ED30 in the data set with Carrageenin edema amounted to 28.3 mg/kg. Moreover, in the data set on Acetic acid writhing, the ED50 was determined as 17.8 mg/kg. Besides, the median lethal dose (LD50) at 72 h in “Acute toxicity” worked out at 400 mg/kg.

Take `CNCC1CC[S+]([O-])c2c1n(C)c1ccccc21` (centres unmarked) [Compound 4, 4-Methylaminomethyl-5-methyl-2,3,4,5-tetrahydrothiopyrano[3,2-b]indole 1-oxide]: the ED50 in the data set with Acetic acid writhing was 49 mg/kg. Further, the LD50 at 72 h in the data set “Acute toxicity” is above 1000 mg/kg.

`C=CCn1c2c(c3ccccc31)SCCC2CNC` (centres unmarked) [Compound 5]: the ED30 in the data set with Carrageenin edema is 17.5 mg/kg. Moreover, the ED50 with Acetic acid writhing amounted to 11.3 mg/kg. The LD50 at 72 h in the data set “Acute toxicity” worked out at 700 mg/kg.

Turning to `CCN(CC)CCN(C)CC1CCSc2c1n(C)c1ccccc21` (centres unmarked) [Compound 6], the ED30 with Carrageenin edema turned out to be 13.4 mg/kg. In addition, the ED50 with Acetic acid writhing is 25.3 mg/kg. For the same compound, the 50% lethal dose (LD50) at 72 h in “Acute toxicity” came to 700 mg/kg.

On to `CN(C)CCCN1c2ccccc2CCc2ccccc21` [Imipramine], for which the ED50 was 6 mg/kg in the data set with tetrabenazine ptosis, 102 mg/kg in data set [1], 4.5 mg/kg with oxotremorine hypothermia and 56 mg/kg in data set [4]. The “% of decrease of spontaneous locomotion” value in [4] (25 mg/kg) is given as 19.1%; in data set [4] (50 mg/kg), 56.0%; in [4] (100 mg/kg), 62.9%.

For `CN[C@@H](C)Cc1ccccc1` [Methamphetamine, reference compound], the ED50 in [2] (mice) came out at 0.6 mg/kg. The “% of increase of spontaneous locomotion” value in [2] (mice, 0.5 mg/kg) is 45.4%; in data set [2] (mice, 1 mg/kg) it was 62.5%; in data set [2] (mice, 2 mg/kg), 137.8%.

With `CNCC1CCSc2[nH]c3ccccc3c21` (centres unmarked) [Ref., 4methylaminomethyl-2,3,4,9-tetrahydro-thiopyrano [3,2b]indole HCl salt, reference compound], the ED50 is 4.2 mg/kg in the data set on Acetic acid writhing; above 50 mg/kg in the data set with tetrabenazine ptosis; 8.4 mg/kg in [1]; above 50 mg/kg with oxotremorine hypothermia; 43 mg/kg in data set [4]. Besides, the LD50 at 72 h in “Acute toxicity” amounted to 330 mg/kg. Further, the “effect on spontaneous locomotion (in words)” value in [4] (Table 4) is given as “decreases the activity”. Besides, the “% of decrease of spontaneous locomotion” value in data set [4] (25 mg/kg) worked out at 7.4%; in [4] (50 mg/kg), 75.3%; in data set [4] (100 mg/kg), 97.2%. The hallucinogenic activity entry in [3] is listed as “does”.
